Experimental data from PubChem BioAssay AID248 (DTP/NCI, 2004).
Values joined by “and” are separate entries in the source; they are usually repeats but may differ in a detail not shown here. Equal values may be shown once. Toxic doses and inconclusive results are not listed. Rule as the data show it: active = T/C of 150% or more; inactive = T/C below 125%.

System: L1210 leukemia ip in BDF1 mice, survival T/C
Experiment: NCI In Vivo Anticancer Drug Screen. Data for tumor model L1210 Leukemia (intraperitoneal) in B6D2F1 (BDF1) mice
Details: endpoint: mean survival time, higher = longer survival
Summary of the method: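 Each compound was tested against a transplantable tumor grown in mice. The endpoint was survival, with treated animals benchmarked against vehicle controls as a simple ratio.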

[1] = dose: 100.0 mg/kg/injection, schedule: Q04DX002 (ip), vehicle: saline with Tween-80
[2] = dose: 200.0 mg/kg/injection, schedule: Q04DX002 (ip), vehicle: saline with Tween-80
[3] = dose: 400.0 mg/kg/injection, schedule: Q04DX002 (ip), vehicle: saline with Tween-80
[4] = dose: 100.0 mg/kg/injection, schedule: Q01DX009 (ip), vehicle: saline with Tween-80
[5] = dose: 200.0 mg/kg/injection, schedule: Q01DX009 (ip), vehicle: saline with Tween-80
[6] = dose: 400.0 mg/kg/injection, schedule: Q01DX009 (ip), vehicle: saline with Tween-80
[7] = dose: 100.0 mg/kg/injection, schedule: Q01DX001 (ip), vehicle: Klucel (hydroxypropylcellulose) (HPC)
[8] = dose: 200.0 mg/kg/injection, schedule: Q01DX001 (ip), vehicle: Klucel (hydroxypropylcellulose) (HPC)
[9] = dose: 100.0 mg/kg/injection, schedule: Q01DX001 (ip), vehicle: saline
[10] = dose: 12.5 mg/kg/injection, schedule: Q04DX003 (ip), vehicle: saline with Tween-80
[11] = dose: 25.0 mg/kg/injection, schedule: Q04DX003 (ip), vehicle: saline with Tween-80
[12] = dose: 100.0 mg/kg/injection, schedule: Q04DX003 (ip), vehicle: saline with Tween-80
[13] = dose: 200.0 mg/kg/injection, schedule: Q04DX003 (ip), vehicle: saline with Tween-80
[14] = dose: 400.0 mg/kg/injection, schedule: Q04DX003 (ip), vehicle: saline with Tween-80

Measured: T/C

FC1(F)C2Cc3ccccc3C2C1(F)F (stereo unspecified)
inactive: dose: 100.0 mg/kg/injection, schedule: Q04DX003 (ip), vehicle: Klucel (hydroxypropylcellulose) (HPC) 96 % of control | dose: 200.0 mg/kg/injection, schedule: Q04DX003 (ip), vehicle: Klucel (hydroxypropylcellulose) (HPC) 98 % of control | dose: 400.0 mg/kg/injection, schedule: Q04DX003 (ip), vehicle: Klucel (hydroxypropylcellulose) (HPC) 100 % of control

C#CC1(NC(=O)NC(C)(C)C)CCCCC1
inactive: [1] 97 % of control | [2] 97 % of control | [3] 97 % of control

IC12CC3CC(CC(C3)C1)C2
inactive: [4] 93 % of control | [5] 87 % of control | [6] 97 % of control

OC1CC2CCC(C1)S2 (stereo unspecified)
inactive: dose: 50.0 mg/kg/injection, schedule: Q01DX001 (ip), vehicle: Klucel (hydroxypropylcellulose) (HPC) 100 % of control | [7] 105 % of control | [8] 96 % of control

CC(=O)Nc1ccc(/C=N/Nc2c3ccccc3nc3ccccc23)cc1
inactive: [9] 108 % of control

O=c1[nH]c2ccccc2nc1CBr
inactive: [10] 94 % of control | [11] 89 % of control | dose: 50.0 mg/kg/injection, schedule: Q04DX003 (ip), vehicle: saline with Tween-80 86 % of control

CC(NC(=O)OCc1ccccc1)C(=O)Nc1ccc(C(=O)O)c(O)c1 (stereo unspecified)
inactive: [4] 90 % of control | [5] 88 % of control | [6] 98 % of control

O/N=C1/CCCC/C1=C/c1ccccc1
inactive: [12] 101 % of control | [13] 97 % of control | [14] 100 % of control

COc1ccccc1C(=O)NN
inactive: dose: 6.25 mg/kg/injection, schedule: Q04DX003 (ip), vehicle: saline 98 % of control | dose: 12.5 mg/kg/injection, schedule: Q04DX003 (ip), vehicle: saline 98 % of control | dose: 25.0 mg/kg/injection, schedule: Q01DX009 (ip), vehicle: saline 106 % of control | dose: 25.0 mg/kg/injection, schedule: Q04DX003 (ip), vehicle: saline 103 % of control | dose: 50.0 mg/kg/injection, schedule: Q01DX009 (ip), vehicle: saline 110 % of control

COc1cc2c(c(OC)c1OC)-c1ccc(OC)c(=O)cc1[C@@H](NC(=O)CF)CC2
inactive: dose: 0.04 mg/kg/injection, schedule: Q01DX009 (ip), vehicle: saline 113 % of control | dose: 0.06 mg/kg/injection, schedule: Q04DX002 (ip), vehicle: saline with Tween-80 101 % of control | dose: 0.09 mg/kg/injection, schedule: Q01DX001 (ip), vehicle: saline with Tween-80 116 % of control | dose: 0.09 mg/kg/injection, schedule: Q01DX009 (ip), vehicle: saline with Tween-80 122 % of control | dose: 0.09 mg/kg/injection, schedule: Q01DX009 (ip), vehicle: saline 118 % of control | dose: 0.09 mg/kg/injection, schedule: Q04DX003 (ip), vehicle: saline with Tween-80 108 % of control | dose: 0.12 mg/kg/injection, schedule: Q04DX002 (ip), vehicle: saline with Tween-80 104 % of control | dose: 0.18 mg/kg/injection, schedule: Q01DX001 (ip), vehicle: saline with Tween-80 119 % of control | dose: 0.18 mg/kg/injection, schedule: Q04DX003 (ip), vehicle: saline with Tween-80 113 % of control | dose: 0.25 mg/kg/injection, schedule: Q04DX002 (ip), vehicle: saline with Tween-80 117 % of control | dose: 0.37 mg/kg/injection, schedule: Q01DX001 (ip), vehicle: saline with Tween-80 114 % of control | dose: 0.37 mg/kg/injection, schedule: Q01DX009 (ip), vehicle: saline with Tween-80 100 % of control | dose: 0.37 mg/kg/injection, schedule: Q04DX003 (ip), vehicle: saline with Tween-80 118 % of control | dose: 0.5 mg/kg/injection, schedule: Q04DX002 (ip), vehicle: saline with Tween-80 121 % of control | dose: 0.75 mg/kg/injection, schedule: Q01DX001 (ip), vehicle: saline with Tween-80 121 % of control | dose: 0.75 mg/kg/injection, schedule: Q04DX003 (ip), vehicle: saline with Tween-80 116 % of control | dose: 1.5 mg/kg/injection, schedule: Q04DX002 (ip), vehicle: saline with Tween-80 113 % of control | dose: 2.0 micrograms/kg/injection, schedule: Q01DX009 (ip), vehicle: saline with Tween-80 97 % of control | dose: 5.0 micrograms/kg/injection, schedule: Q01DX009 (ip), vehicle: saline with Tween-80 105 % of control | dose: 10.0 micrograms/kg/injection, schedule: Q01DX009 (ip), vehicle: saline with Tween-80 89 % of control

NNS(=O)(=O)Cc1ccccc1
inactive: [9] 100 % of control | dose: 200.0 mg/kg/injection, schedule: Q01DX001 (ip), vehicle: saline 95 % of control

CCOc1c(CNC(=O)CCl)cc(N)cc1CNC(=O)CCl
inactive: dose: 50.0 mg/kg/injection, schedule: Q01DX001 (ip), vehicle: saline 106 % of control | [9] 111 % of control

COc1ccc(-c2ccc(CC(N)=O)cc2)cc1Cl
inactive: dose: 100.0 mg/kg/injection, schedule: Q01DX001 (ip), vehicle: carboxymethylcellulose (CMC) 91 % of control | dose: 200.0 mg/kg/injection, schedule: Q01DX001 (ip), vehicle: carboxymethylcellulose (CMC) 94 % of control | dose: 400.0 mg/kg/injection, schedule: Q01DX001 (ip), vehicle: carboxymethylcellulose (CMC) 89 % of control

O=C(O)c1ccc(S(=O)(=O)N(Cl)Cl)cc1
inactive: [4] 96 % of control | [5] 100 % of control | [6] 98 % of control

CNC(=O)NCc1cccnc1
inactive: dose: 100.0 mg/kg/injection, schedule: Q01DX009 (ip), vehicle: saline 111 % of control | dose: 200.0 mg/kg/injection, schedule: Q01DX009 (ip), vehicle: saline 103 % of control | dose: 400.0 mg/kg/injection, schedule: Q01DX009 (ip), vehicle: saline 114 % of control

CCOC(=O)C(NC(=O)NS(=O)(=O)c1ccc(C)cc1)C(=O)OCC
inactive: [7] 91 % of control | [8] 92 % of control | dose: 400.0 mg/kg/injection, schedule: Q01DX001 (ip), vehicle: Klucel (hydroxypropylcellulose) (HPC) 91 % of control

O=C1C=CC(=O)N1c1ccc(Br)cc1 (tested in a mixture with another compound)
inactive: dose: 100.0 mg/kg/injection, schedule: Q04DX003 (ip), vehicle: acetone 96 % of control | dose: 200.0 mg/kg/injection, schedule: Q04DX003 (ip), vehicle: acetone 89 % of control | dose: 400.0 mg/kg/injection, schedule: Q04DX003 (ip), vehicle: acetone 91 % of control

CC(C)(CC(=O)O)Cc1ccccc1
inactive: dose: 50.0 mg/kg/injection, schedule: Q01DX009 (ip), vehicle: saline with Tween-80 101 % of control | [4] 93 % of control | [5] 101 % of control

c1ccc(N=Nc2ccncc2)cc1
inactive: dose: 6.25 mg/kg/injection, schedule: Q04DX003 (ip), vehicle: saline with Tween-80 101 % of control | [10] 92 % of control | [11] 97 % of control

Cc1cccc(NC(=S)NC(=O)c2cccc([N+](=O)[O-])c2)c1C
inactive: [4] 104 % of control and 118 % of control | [1] 88 % of control | [12] 99 % of control | [5] 103 % of control and 104 % of control | [2] 102 % of control | [13] 101 % of control | [6] 104 % of control | [3] 98 % of control | [14] 100 % of control
